Paper PMC3744471, “Mitochondria Are the Target Organelle of Differentiation-Inducing Factor-3, an Anti-Tumor Agent Isolated from Dictyostelium Discoideum” (PLoS ONE, 2013)

How the values were obtained:
HeLa cells [1] = assay: Cell growth assay (Alamar blue), HeLa; format: cell-based, human; details: 3 days; for Effect on cell growth (relative cell number): HeLa; for IC50: Homo sapiens, 72 h, HeLa cells, Alamar blue
Description: HeLa, LM8, and 3T3-L1 cells were cultured for 3 days at 2.5–5×10^3 cells/well in 12-well plates with each well filled with 1 ml of DMEM-FBS (for HeLa and 3T3-L1) or MEM-α-FBS (for LM8) together with drugs at various concentrations. Then, the incubation media were discarded and the cells were washed with 1 ml of PBS(–) (20 mM phosphate buffered saline, pH 7.4) and incubated with 1 ml of fresh DMEM-FBS (HeLa and 3T3-L1) or MEM-α-FBS (LM8) containing 5% (v/v) of Alamar blue (a cell number indicator; Wako Pure Chemical Industries, Osaka, Japan) until the color changed. […] Relative cell numbers were determined for each concentration for each drug and the IC50 was determined from the dose-response curves.

LM8 cells = assay: Cell growth assay (Alamar blue), LM8; format: cell-based, mouse; details: for Effect on cell growth in LM8 cells: BODIPY-DIF-3 5–20 µM, CCCP 2–10 µM, 4 days; for IC50: Mus musculus, 72 h, LM8 cells, 3 days, Alamar blue
Description: HeLa, LM8, and 3T3-L1 cells were cultured for 3 days at 2.5–5×10^3 cells/well in 12-well plates with each well filled with 1 ml of DMEM-FBS (for HeLa and 3T3-L1) or MEM-α-FBS (for LM8) together with drugs at various concentrations. Then, the incubation media were discarded and the cells were washed with 1 ml of PBS(–) (20 mM phosphate buffered saline, pH 7.4) and incubated with 1 ml of fresh DMEM-FBS (HeLa and 3T3-L1) or MEM-α-FBS (LM8) containing 5% (v/v) of Alamar blue (a cell number indicator; Wako Pure Chemical Industries, Osaka, Japan) until the color changed. The relative cell number was assessed by measuring absorbance at 570 nm (reference at 595 nm) as described previously, [14]; DIF-related compounds and BODIPY-conjugated compounds hardly disturbed the cell number assessment with Alamar blue (data not shown), probably because the additive compounds were washed out when cell number was assessed. For determination of the 50% inhibitory concentration (IC50) of each drug, the cells were cultured for 3 days in the presence of each drug at various concentrations. Relative cell numbers were determined for each concentration for each drug and the IC50 was determined from the dose-response curves.
Supplementary file pone.0072118.s001.tif: Figure S1 Effects of BODIPY-DIF-3 and CCCP on cell growth, and cellular localization of BODIPY-DIF-3 in LM8 cells. (A) Cells were incubated for 4 days with 5–20 µM of BODIPY-DIF-3 (closed circles) or 2–10 µM of CCCP (closed triangles), and relative cell number was assessed by the use of Alamar blue. Data are the mean values and SD (bars) of three independent experiments. (B) Cells were incubated for 0.5 h or 3 days with 20 µM of BODIPY-DIF-3, washed free of the additive, and observed microscopically. (C) Cells were incubated for 0.5 h with BODIPY-DIF-3 (20 µM), Hoechst (0.1 µg/ml), and MitoTracker (0.1 µM), washed free of the additives, and observed by using a high-magnification fluorescence microscope. (D) Cells were incubated for 3 days with BODIPY-DIF-3 (20 µM) and then for 0.5 h with Hoechst (0.1 µg/ml) and MitoTracker (0.1 µM). Cells were washed free of the additives and observed by using a high-magnification fluorescence microscope. (TIF) Click here for additional data file.

HeLa cells [2] = assay: Electron microscopy of organelle morphology; format: cell-based, human; details: 3 days, Bu-DIF-3 5 µM, BODIPY-DIF-3 20 µM
Description: HeLa cells were incubated for 3 days with 2 ml DMEM-FBS containing 0.2% DMSO and 5 µM Bu-DIF-3 or 20 µM BODIPY-DIF-3 in 35-mm plastic dishes at 2×10^4 cells/dish. The cells were fixed at 4°C for 30 min with PB (0.1 M phosphate buffer, pH 7.4) containing 2% paraformaldehyde and 2% glutaraldehyde and then with PB containing 2% glutaraldehyde at 4°C overnight. The cell samples were rinsed 3 times with PB for 30 min each, followed by post fixation with 2% OsO4 in PB at 4°C for 1 h. The samples were dehydrated through a graded ethanol (EtOH) series starting with 50% and 70% EtOH for 5 min each at 4°C, then 90% EtOH for 5 min at room temperature, followed by three changes of 100% EtOH for 5 min each at room temperature. The samples were then transferred to a resin (Quetol-812; Nisshin EM Co., Tokyo, Japan) and polymerized at 60°C for 48 h. Ultra-thin (70 nm) sections were cut with an ultramicrotome (ULTRACUT UCT; Leica, Wetzlar, Germany), collected onto copper grids, stained with 2% uranyl acetate at room temperature for 15 min, and then rinsed with distilled water. The sections were then stained with Lead stain solution (Sigma-Aldrich) at room temperature for 3 min. The sections were observed under a transmission electron microscope (JEM-1200Ex; JEOL Ltd., Tokyo, Japan) at an acceleration voltage of 80 kV. Digital images (2048×2048 pixels) were taken with a charge-coupled device camera (VELETA; Olympus Soft Imaging Solutions GmbH, Tokyo, Japan).

Compound	Effect on cell growth (relative cell number) (HeLa cells [1]; CCCP 10 µM, azide 0.01%)	IC50 (HeLa cells [1]) [µM]	Effect on cell growth in LM8 cells (LM8 cells)	IC50 (LM8 cells) [µM]	Effect on cell growth (relative cell number) (HeLa cells [1]; 5–20 µM (Bu-BODIPY up to 20 µM))	Lipid bodies in treated cells (HeLa cells [2])	Number of swollen mitochondria (HeLa cells [2])	Total number of mitochondria (HeLa cells [2])	Effect on cell growth (relative cell number) (HeLa cells [1]; 20 µM)
N#CC(C#N)=NNc1cccc(Cl)c1 [CCCP, carbonyl cyanide m-chlorophenylhydrazone, reference compound]	significantly suppressed	5.2	dose-dependently suppressed cell growth	6.8					
CCCCCC(=O)c1c(O)cc(OCCCCNC(=O)CCC2=[N+]3C(=Cc4c(C)cc(C)n4[B-]3(F)F)C=C2)c(Cl)c1O [BODIPY-DIF-3]		13.2	dose-dependently suppressed cell growth	12.2	suppressed in a dose-dependent manner	many lipid bodies were observed	increase in the number of swollen mitochondria	tended to cause a decrease	
CCCCCC(=O)c1c(O)cc(OCCCC)c(Cl)c1O [Bu-DIF-3, 1-(3-chloro-2,6-dihydroxy-4-butoxyphenyl)hexan-1-one]		3.2		2		many lipid bodies were observed	increase in the number of swollen mitochondria	tended to cause a decrease	significantly suppressed
CCCCCC(=O)c1c(O)cc(OC)c(Cl)c1O [DIF-3, 1-(3-chloro-2,6-dihydroxy-4-methoxyphenyl)hexan-1-one]		14.5		15.5					significantly suppressed
